Molecular target: T1, IRAK3-ePL (Homo sapiens, UniProt Q9Y616)
T1 construct: expressed in transfected cells; host or cells: 293T CRBN OE/GSPT1 G575N KI cells, lentiviral transduction, puromycin selection
Assay: IRAK3-ePL overexpressing degradation assay
Type: cell-based
Conditions: IRAK3-ePL Lenti-X 293T CRBN/GSPT1 G575N cells, overnight incubation, top dose 10 μM; for Dmax: HEK-293T, maximum percentage loss of target protein; for DC50: read-out: IRAK3 ePL degradation EC50
Experimental: Example B1. IRAK3-ePL Overexpressing Degradation Assay
Stable cell lines were generated by the following protocol. 3×10^5 Lenti-X 293T cells (Clonetech) were plated in 0.8 mL of media in a 12-well plate and incubated overnight at 37° C./5% CO2. Packaging plasmid (0.4 μg, pMD), envelope plasmid (0.4 μg, pSP), and lentiviral transfer IRAK3-ePL plasmid (0.8 μg, IRAK3 sequence NM_007199.3) were mixed in 0.1 mL of Opti-MEM and incubated for 5 min. Simultaneously, 2.4 μL of Lipofectamine 2000 (Invitrogen) was added to 0.1 mL of Opti-MEM (Gibco) and incubated for 5 min. The plasmid DNA and lipofectamine were combined and the mixture was allowed to incubate for 20 min. DNA:Lipofectamine Opti-MEM mixtures were then added to previously plated cells dropwise and the cells were incubated for ~16 h at 37° C./5% CO2. Following incubation, the media was removed and 1.2 mL of fresh media was added per well. Lenti-X 293T cells were incubated for ~30 h at 37° C./5% CO2. […] Following incubation, media was removed from the Lenti-X 293T wells and passed through a […]. Part of the viral supernatant was used to transduce cells and the rest was stored at −80° C. Viruses were then added individually (0.5 mL virus) to each well of the 293T^CRBN OE/GSPT1 G575N KI cells, followed by addition of polybrene (10 mg/mL Millipore) to each well at a final concentration of 5.0 μg/mL. Cells were incubated for ~24 h at 37° C./5% CO2. After aspirating media off plates, cells were washed with DPBS, trypsinized and plated in a 10 cm dish in 15 mL of media and 1 μg/mL puromycin. Following incubation of cells for ~72 h at 37° C./5% CO2, media was aspirated off plates, and cells were washed with DPBS and trypsinized. The cells were plated in a 15 cm dish in 40 mL of media with 1.0 μg/mL Puromycin (Gibco) and incubated for ~72 h at 37° C./5% CO2. Following incubation, media was removed and cells were washed with DPBS and trypsinized. The majority of cells were resuspended in Invitrogen freezing media and stored away (~6-8×10^6 cells/vial).
IRAK3-ePL cellular dose response curve degradation assays were performed by the following protocol. Compounds to be tested were dispensed into a white 384-well tissue-culture treated plate using an acoustic liquid handler. Dilutions were prepared based on a 25 μL assay volume in duplicate 10 point 3-fold serial dilutions starting with a 10 μM dose. Negative control wells were included, which only contain 0.2% DMSO to calculate 100% signal. Positive control wells containing 30 μM Ataluren (luciferase inhibitor) were included to calculate the background signal level. All wells were backfilled to a final DMSO concentration of 0.2% to ensure DMSO uniformity across wells. IRAK3-ePL expressing cells (IRAK3-ePL Lenti-X 293T^CRBN/GSPT1 G575N) were washed, trypsinized, counted, and resuspended in fresh DMEM (Gibco) to give a cell concentration of 200,000 cells/mL. 25 μL of cells (5,000 cells/well) were dispensed into the wells of the 384-well plate prespotted with compounds in the previous step and incubated overnight at 37° C./5% CO2. Following incubation, the 384-well plate was taken out of the incubator and left at room temperature for 30 min. InCELL hunter reagent was prepared according to manufacturer's instructions (EA reagent, lysis buffer, and substrate reagent in a 1:1:4 ratio, Cat #96-0002, DiscoverX), which was added to the 384-well plate 25 μL per well. Following the incubation of the plate for 1 h at room temperature, the luminescence signal was read using a ViewLux plate reader. Data was processed and analyzed in ActivityBase software. In short, the average luminescence values of the positive control wells were subtracted from the rest of the wells for background correction, and all luminescence values were normalized to the DMSO control wells. The average value of the DMSO control wells was set to equal 100% of the relative IRAK3-ePL protein levels. […]

Dmax [%] | DC50 [µM] | SMILES
36 | > 10 | C[C@@H](Oc1cc(-c2cnn(C3CCN(C4CCC5(CC4)CCN(C(=O)c4ccc6c(c4)C(=O)N(C4CCC(=O)NC4=O)C6)CC5)CC3)c2)cnc1N)c1c(Cl)ccc(F)c1Cl (stereo partly drawn) [Compound 19, 3-(6-(9-(4-(4-(6-amino-5-((R)-1-(2,6-dichloro-3-fluorophenyl)ethoxy)pyridin-3-yl)-1H-pyrazol-1-yl)piperidin-1-yl)-3-azaspiro[5.5]undecane-3-carbonyl)-1-oxoisoindolin-2-yl)piperidine-2,6-dione]
59 | 0.105 | C[C@@H](Oc1cc(-c2cnn(C3CCN(C4CCC5(CC4)CCN(C(=O)c4cccc6c4CN(C4CCC(=O)NC4=O)C6=O)CC5)CC3)c2)cnc1N)c1c(Cl)ccc(F)c1Cl (stereo partly drawn) [Compound 21, 3-(4-(9-(4-(4-(6-amino-5-((R)-1-(2,6-dichloro-3-fluorophenyl)ethoxy)pyridin-3-yl)-1H-pyrazol-1-yl)piperidin-1-yl)-3-azaspiro[5.5]undecane-3-carbonyl)-1-oxoisoindolin-2-yl)piperidine-2,6-dione]
27 | > 10 | C[C@@H](Oc1cc(-c2cnn(C3CCN(CCOCCOCCNC(=O)COc4ccc5c(c4)C(=O)N(C4CCC(=O)NC4=O)C5=O)CC3)c2)cnc1N)c1c(Cl)ccc(F)c1Cl (stereo partly drawn) [Compound 15, N-(2-(2-(2-(4-(4-(6-amino-5-((R)-1-(2,6-dichloro-3-fluorophenyl)ethoxy)pyridin-3-yl)-1H-pyrazol-1-yl)piperidin-1-yl)ethoxy)ethoxy)ethyl)-2-((2-(2,6-dioxopiperidin-3-yl)-1,3-dioxoisoindolin-5-yl)oxy)acetamide]
74 | 0.055 | C[C@@H](Oc1cc(-c2cnn(C3CCN(C4CCC5(CC4)CCN(C(=O)c4ccc6c(c4)CN(C4CCC(=O)NC4=O)C6=O)CC5)CC3)c2)cnc1N)c1c(Cl)ccc(F)c1Cl (stereo partly drawn) [Compound 20, 3-(5-(9-(4-(4-(6-amino-5-((R)-1-(2,6-dichloro-3-fluorophenyl)ethoxy)pyridin-3-yl)-1H-pyrazol-1-yl)piperidin-1-yl)-3-azaspiro[5.5]undecane-3-carbonyl)-1-oxoisoindolin-2-yl)piperidine-2,6-dione]

The next lines start with the molecule.

SMILES | Dmax [%] | DC50 [µM]
C[C@@H](Oc1cc(-c2cnn(C3CCN(CCNC(=O)COc4ccc5c(c4)C(=O)N(C4CCC(=O)NC4=O)C5=O)CC3)c2)cnc1N)c1c(Cl)ccc(F)c1Cl (stereo partly drawn) [Compound 13, N-(2-(4-(4-(6-amino-5-((R)-1-(2,6-dichloro-3-fluorophenyl)ethoxy)pyridin-3-yl)-1H-pyrazol-1-yl)piperidin-1-yl)ethyl)-2-((2-(2,6-dioxopiperidin-3-yl)-1,3-dioxoisoindolin-5-yl)oxy)acetamide] | 70 | 0.173
C[C@@H](Oc1cc(-c2cnn(C3CCN(CCOCCOCCOCCNC(=O)COc4cccc5c4C(=O)N(C4CCC(=O)NC4=O)C5=O)CC3)c2)cnc1N)c1c(Cl)ccc(F)c1Cl (stereo partly drawn) [Compound 11, N-(2-(2-(2-(2-(4-(4-(6-amino-5-((R)-1-(2,6-dichloro-3-fluorophenyl)ethoxy)pyridin-3-yl)-1H-pyrazol-1-yl)piperidin-1-yl)ethoxy)ethoxy)ethoxy)ethyl)-2-((2-(2,6-dioxopiperidin-3-yl)-1,3-dioxoisoindolin-4-yl)oxy)acetamide] | 12 | > 10
C[C@@H](Oc1cc(-c2cnn(C3CCN(CCNC(=O)COc4cccc5c4C(=O)N(C4CCC(=O)NC4=O)C5=O)CC3)c2)cnc1N)c1c(Cl)ccc(F)c1Cl (stereo partly drawn) [Compound 8, N-(2-(4-(4-(6-amino-5-((R)-1-(2,6-dichloro-3-fluorophenyl)ethoxy)pyridin-3-yl)-1H-pyrazol-1-yl)piperidin-1-yl)ethyl)-2-((2-(2,6-dioxopiperidin-3-yl)-1,3-dioxoisoindolin-4-yl)oxy)acetamide] | 12 | > 10
C[C@@H](Oc1cc(-c2cnn(C3CCN(CCOCCOCCNC(=O)COc4cccc5c4C(=O)N(C4CCC(=O)NC4=O)C5=O)CC3)c2)cnc1N)c1c(Cl)ccc(F)c1Cl (stereo partly drawn) [Compound 10, N-(2-(2-(2-(4-(4-(6-amino-5-((R)-1-(2,6-dichloro-3-fluorophenyl)ethoxy)pyridin-3-yl)-1H-pyrazol-1-yl)piperidin-1-yl)ethoxy)ethoxy)ethyl)-2-((2-(2,6-dioxopiperidin-3-yl)-1,3-dioxoisoindolin-4-yl)oxy)acetamide] | 22 | > 10
Cc1ncsc1-c1ccc(CNC(=O)[C@@H]2C[C@@H](O)CN2C(=O)[C@@H](NC(=O)COCCOCCOCCOCCOCCOCCN2CCC(n3cc(-c4cnc(N)c(O[C@H](C)c5c(Cl)ccc(F)c5Cl)c4)cn3)CC2)C(C)(C)C)cc1 [Compound 6, (2S,4R)-1-((S)-23-(4-(4-(6-amino-5-((R)-1-(2,6-dichloro-3-fluorophenyl)ethoxy)pyridin-3-yl)-1H-pyrazol-1-yl)piperidin-1-yl)-2-(tert-butyl)-4-oxo-6,9,12,15,18,21-hexaoxa-3-azatricosanoyl)-4-hydroxy-N-(4-(4-methylthiazol-5-yl)benzyl)pyrrolidine-2-carboxamide] | 25 | > 10

Reference: patent publication US20260234124A1, “Substituted Pyrazolyl-Pyridinyl Compounds as Ligand Directed Degraders of IRAK3” (Celgene Corporation, priority 2022, published 2026)
